Drawing on PubChem BioAssay (NCI), this text covers GI50 and TGI for 11 compounds.

Values joined by “and” are separate entries in the source; they are usually repeats but may differ in a detail not shown here. Equal values may be shown once.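 Where inhibition never reached the appropriate level, the endpoint shown equals the highest concentration tested. Otherwise, values were interpolated linearly from a five-concentration, 48-hour dose response in 96-well plates. GI50 marks 50% less growth. The concentration for full growth arrest is given as TGI.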

Test systems include ACHN renal; COLO 205 colon; DU-145 prostate; HT29 colon; K-562 leukemia; NCI-H460 lung; OVCAR-8 ovarian; SW-620 colon; T-47D breast; UO-31 renal.
Holding throughout (experiment): NCI tumour cell line growth inhibition, 48 h

Consider `COc1cc(-c2ccc3c(c2)NC(=O)/C3=C\c2ccc[nH]2)ccc1O`, for which the GI50 with ACHN renal was 0.0417 µM; with COLO 205 colon it was 0.467 µM; in the assay on DU-145 prostate, 0.0193 µM; in the assay on HT29 colon it was 1.05 µM; in the assay with K-562 leukemia, under 0.0118 µM; in the assay on NCI-H460 lung it was 0.0194 µM. For the same compound, the GI50 with OVCAR-8 ovarian was 0.0252 µM; in the assay on SW-620 colon, 0.0188 µM; with T-47D breast it was 0.219 µM; with UO-31 renal it was 0.0354 µM. Besides, the TGI in the assay with ACHN renal is over 50 µM; in the assay with COLO 205 colon, over 50 µM; with DU-145 prostate it was over 30.2 µM; in the assay on HT29 colon, over 50 µM; in the assay with K-562 leukemia it was over 50 µM; with NCI-H460 lung, over 50 µM. Also, the TGI with OVCAR-8 ovarian, with SW-620 colon, in the assay on T-47D breast and in the assay with UO-31 renal was over 50 µM each time.

Take `CCOC(=O)[C@@H](N)CCC(=O)N[C@@H](CSCc1ccccc1)C(=O)N[C@@H](C(=O)OCC)c1ccccc1`: the GI50 was 18.6 µM with ACHN renal; 17.4 µM in the assay with COLO 205 colon; 38.3 µM in the assay with DU-145 prostate; 16.6 µM in the assay with HT29 colon; 22.2 µM in the assay on K-562 leukemia; 27.1 µM in the assay on NCI-H460 lung. The GI50 in the assay with OVCAR-8 ovarian is 16.8 µM; in the assay with SW-620 colon, 20.7 µM; in the assay on T-47D breast, 14.8 µM; in the assay on UO-31 renal, 34.5 µM. Also, the TGI in the assay on ACHN renal was 34.8 µM; in the assay with COLO 205 colon it was 34.2 µM; in the assay on DU-145 prostate, over 100 µM; in the assay with HT29 colon it was 33.6 µM; in the assay with K-562 leukemia, 75 µM; in the assay with NCI-H460 lung, over 69.8 µM. Moreover, the TGI with OVCAR-8 ovarian was 32.5 µM; with SW-620 colon, 49.2 µM; with T-47D breast it was 33.8 µM; in the assay on UO-31 renal, over 59.5 µM.

In the case of `N#CC(NNC(=O)Cc1ccccc1)c1c(O)ccc2ccccc12` (stereo unspecified), the TGI is 20.2 µM with ACHN renal; over 80.5 µM in the assay with COLO 205 colon; over 63.2 µM in the assay on DU-145 prostate; 62.1 µM in the assay with HT29 colon; over 100 µM in the assay with K-562 leukemia; over 77.5 µM in the assay on NCI-H460 lung. Moreover, the TGI with OVCAR-8 ovarian is 52.2 µM; in the assay with SW-620 colon, over 100 µM; in the assay on T-47D breast, 60.4 µM; in the assay with UO-31 renal it was 11.2 µM.

In the case of `NP(=O)(Oc1c2occc2cc2ccc(=O)oc12)N(CCCl)CCCl` (stereo unspecified), the TGI with ACHN renal, in the assay on COLO 205 colon, in the assay on DU-145 prostate, in the assay on HT29 colon, with K-562 leukemia and in the assay with NCI-H460 lung was over 100 µM each time. For the same compound, the TGI in the assay on OVCAR-8 ovarian, in the assay with SW-620 colon, in the assay with T-47D breast and with UO-31 renal was over 100 µM throughout.

For `Cc1cc(C(=O)Nc2ncc(Cc3cccc(C(F)(F)F)c3)s2)c2ccccc2n1`, the GI50 in the assay with ACHN renal is 0.339 µM; in the assay with COLO 205 colon it was 0.75 µM; in the assay with DU-145 prostate, 3.47 µM; with HT29 colon it was 1.14 µM; with K-562 leukemia it was 0.0458 µM; in the assay with NCI-H460 lung, 1.33 µM. For the same compound, the GI50 with OVCAR-8 ovarian was 3.49 µM; in the assay on SW-620 colon, 1.21 µM; with T-47D breast, 0.181 µM; in the assay with UO-31 renal, 1.5 µM. Moreover, the TGI in the assay on ACHN renal, with COLO 205 colon, in the assay with DU-145 prostate, in the assay on HT29 colon, in the assay on K-562 leukemia and in the assay on NCI-H460 lung was over 100 µM throughout. Further, the TGI in the assay with OVCAR-8 ovarian, in the assay on SW-620 colon, with T-47D breast and with UO-31 renal was over 100 µM throughout.

For the compound `COc1cc2c(c(OC)c1OC)-c1ccc(OC)c(=O)cc1[C@@H](NC(=O)c1ccccc1)CC2`, the GI50 in the assay on ACHN renal is 0.104 µM; with COLO 205 colon it was 0.00399 µM; in the assay with DU-145 prostate, under 0.003 µM; in the assay with HT29 colon, 0.00658 µM; in the assay with K-562 leukemia, under 0.003 µM; with NCI-H460 lung, 0.00614 µM and < 0.0126 µM. The GI50 was 0.00935 µM and 0.0138 µM in the assay with OVCAR-8 ovarian; under 0.003 µM with SW-620 colon; over 30 µM in the assay on T-47D breast; over 30 µM with UO-31 renal. For the same compound, the TGI was 30 µM and > 100 µM in the assay with ACHN renal; 0.0153 µM and 0.0138 µM with COLO 205 colon; 0.0329 µM and 0.237 µM in the assay with DU-145 prostate; 30 µM and 13.8 µM in the assay with OVCAR-8 ovarian; 30 µM and > 81.4 µM with SW-620 colon; over 100 µM with T-47D breast. Moreover, the TGI with UO-31 renal is over 100 µM.

Consider `N#C/C(=C1C=C(Br)/C(=N\O)C=C\1Cl)c1cccc2ccccc12`, for which the TGI turned out to be 22.9 µM in the assay on ACHN renal; 5.86 µM in the assay on COLO 205 colon; 12.6 µM in the assay with DU-145 prostate; 6.79 µM in the assay on HT29 colon; 14.3 µM in the assay on K-562 leukemia; 21.4 µM with NCI-H460 lung. Besides, the TGI with OVCAR-8 ovarian is 52.7 µM; with SW-620 colon, 25.5 µM; in the assay with T-47D breast, 12.9 µM; in the assay on UO-31 renal, 24.1 µM.

As to `COc1ccc(/C=C/c2ccnc3ccccc23)c(OC)c1`, the TGI in the assay with ACHN renal, in the assay with COLO 205 colon, in the assay on DU-145 prostate, in the assay with K-562 leukemia, in the assay with NCI-H460 lung and in the assay on OVCAR-8 ovarian was over 10 µM each time. Further, the TGI with SW-620 colon, in the assay on T-47D breast and in the assay on UO-31 renal was over 10 µM throughout.

With `CC(=O)CSCc1ccccn1`, the TGI in the assay on ACHN renal was over 100 µM; in the assay on COLO 205 colon it was over 100 µM; in the assay with DU-145 prostate, over 100 µM; with HT29 colon, over 100 µM; in the assay with K-562 leukemia, 82.3 µM; with NCI-H460 lung, over 100 µM. Also, the TGI in the assay with OVCAR-8 ovarian, in the assay on SW-620 colon, in the assay with T-47D breast and in the assay on UO-31 renal was over 100 µM in each case.

For the compound `COC(C(O)CO)C(O)C(O)C(=O)NNc1ccccc1` (stereo unspecified), the TGI in the assay with ACHN renal was over 100 µM; with COLO 205 colon it was 28.7 µM; with DU-145 prostate it was over 100 µM; in the assay with HT29 colon, over 100 µM; with K-562 leukemia it was over 100 µM; in the assay with NCI-H460 lung it was over 100 µM. Moreover, the TGI with OVCAR-8 ovarian, in the assay with SW-620 colon, with T-47D breast and with UO-31 renal was over 100 µM throughout.

Turning to `NCC1Nc2ccccc2[C@@H](O)C1O` (stereo partly specified), the TGI with ACHN renal, in the assay with COLO 205 colon, in the assay with DU-145 prostate, with HT29 colon, in the assay with K-562 leukemia and in the assay with NCI-H460 lung was over 100 µM each time. Moreover, the TGI with OVCAR-8 ovarian, in the assay on SW-620 colon, in the assay on T-47D breast and in the assay with UO-31 renal was over 100 µM each time.
